Results taken from patent publication US4677113A, “Di-t-butylphenols substituted by a thenoyl group” (Riker Laboratories, Inc., priority 1986, dated 1987).
Like-named read-outs stand apart in the source and are kept apart here.

Legend:
[1] = tested on: leukotriene synthesis in homogenized rat basophil leukemia cells; assay: cell free leukotriene biosynthesis system (homogenized rat basophil leukemia cells, radioimmunoassay); assay type: biochemical; settings: synthesis initiated by arachidonate; drug preincubated five minutes; read-out: IC50, leukotriene synthesis inhibition
Protocol: This test utilizes the cell free leukotriene biosynthesis system of M. Steinhoff et al. Biochim. Acta. 68, 28 (1980), incorporated herein by reference, which consists of homogenized rat basophil leukemia cells. Leukotriene synthesis is initiated by the addition of arachidonate. Solutions are centrifuged and supernatants assayed using a radioimmunoassay developed as described by Aeringhaus et al. FEBS Letter 146, 111-114. Drugs are dissolved in ethanol or dimethyl sulfoxide and then preincubated for five minutes. Phenidone is used as a positive control.

[2] = tested on: bronchoconstriction in sensitized guinea pigs; assay: antigen-induced bronchoconstriction in sensitized guinea pigs (frequency of notching); assay type: in vivo, guinea pig; settings: Cavia porcellus, male Hartley guinea pigs pretreated with antihistamine, read-out: ED40, inhibition of bronchoconstriction
Protocol: Preferably, bronchoconstriction in sensitized guinea pigs is measured upon antigen challenge. This test is described in broad terms by Piechuta, et al., Immunology, 38, 385 (1979) and more specifically by Hammerbeck and Swingle, Int. Archs. Allergy Appl. Immun. 74, 84-90 (1984), both references being incorporated herein by reference. It was used in a modified form as follows: Male Hartley guinea pigs (250-600 g) which were pretreated with an antihistamine, e.g., chlorpheniramine and then dosed intraperitoneally with a compound of the invention at a level of about 1 to 40 mg/kg 15 minutes prior to challenge or orally at the same dose 30 minutes prior to challenge were aerosol challenged with either water or ovalbumim at a concentration of 10 mg per ml. The animals were placed under an inverted dessicator jar (18×14 cm) with a constant flow of air coming into the chamber from a compressed-air source to prevent hypoxia. Air flow leaving the chamber and fluctuations due to respiration were monitored through a separate outlet with a Fleisch No. 0000 pneumotachograph (available from Beckman Instruments, Inc., Schiller Park, Ill.) coupled to a Beckman Type R dynograph (available from Beckman Instruments, Inc.). Aerosolization through a third outlet was made via a No. 4 DeVilbiss nebulizer (available from the DeVilbiss Company, Somerset, PA) for 90 seconds at 150 mm Hg. […]

Compound `CC(C)(C)c1cc(C(=O)c2ccc(C(=O)O)s2)cc(C(C)(C)C)c1O` [5-(3',5'-di-t-butyl-4'-hydroxybenzoyl)thiophene-2-carboxylic acid] has an IC50 [1] of 15 µM, an ED40 ([2]; ip, 0.25 h, administered intraperitoneally 15 minutes prior to ovalbumin aerosol challenge) of less than 10 mg/kg and an ED40 ([2]; po, 0.5 h, administered orally 30 minutes prior to ovalbumin aerosol challenge) of less than 25 mg/kg.
